Reference: paper PMC4961418, “A Selective Irreversible Inhibitor of Furin Does Not Prevent Pseudomonas Aeruginosa Exotoxin A-Induced Airway Epithelial Cytotoxicity” (PLoS ONE, 2016)
Peptide text beside a SMILES is read from it. * marks the point of attachment. Decanoyl = CCCCCCCCCC(=O)*; CH2Cl = ClC*

Molecular target: cathepsin B (Homo sapiens, UniProt P07858)
Assay: Cathepsin B activity assay
Format: biochemical
Conditions: cathepsin B, N = 3
Procedure: Fig 3 Comparison of QUB-F1 and furin I versus cathepsin B. Cathepsin B activity was assessed in the presence or absence of various concentrations of QUB-F1 or furin I (N = 3). Data represent mean ± s.e.m.

CCCCCCCCCC(=O)N[C@@H](CCCNC(=N)N)C(=O)N[C@H](C(=O)N[C@@H](CCCCN)C(=O)N[C@@H](CCCNC(=N)N)C(=O)CCl)C(C)C [furin I, Decanoyl-RVKR-chloromethylketone (CMK), reference compound] (Decanoyl-RVKR-CH2Cl)
IC50: 56 nM
